Assay results from EP4700120A1, “NOVEL P[…] DON-DEGRADING ACTIVITY” (CJ Cheiljedang Corporation, priority 2023, dated 2024).

System: IPEC-J2 cells
Test: Cytotoxicity of DON degradation products, WST assay cell viability
Type: cell-based
Settings: for Cell Viability (%): 24 hours
Description: A DMEM/F-12 medium supplemented with 10% FBS and 1% penicillin-streptomycin was added to a T75 flask, and the IPEC-J2 cell line was subcultured in the flask at 37°C and under 5% CO2. For cytotoxicity evaluation, the cultured cells were seeded in 96-well plates containing DMEM/F-12 with 10% FBS to 3×10^4 cells/100 µL, and the cells were incubated for 24 hour under the above conditions. Thereafter, the existing medium was removed, and the three samples in Table 4 were each applied to the cells so as to final concentrations of 2 µM, 1 µM, and 0.5 µM (based on the substrate concentration before the reaction), followed by additional incubation at 37°C in a CO2 incubator for 24 hours. After incubation, the existing substances were removed, and the cells were washed once with DMEM/F-12 and treated with a WST assay reagent (EZ-Cytox kit, DoGenBio) together with the medium. After 2 hours, absorbance at 450 nm was measured to determine cell viability of IPEC-J2 cells.

SMILES: CC1=C[C@H]2O[C@@H]3[C@H](O)C[C@](C)([C@@]2(CO)[C@H](O)C1=O)[C@]31CO1 [DON Control, deoxynivalenol]
- cell viability (IPEC-J2, 0.5 µM to 2 µM): approximately 65%
- Cell Viability (%) (IPEC-J2, sample concentration 0.5 µM (substrate concentration before the reaction)): 79.0%
- Cell Viability (%) (IPEC-J2, sample concentration 1 µM (substrate concentration before the reaction)): 71.4%
- Cell Viability (%) (IPEC-J2, sample concentration 2 µM (substrate concentration before the reaction)): 64.6%
